From ChEMBL document CHEMBL3045219, “Molecular modeling studies, synthesis and biological evaluation of derivatives of N-phenylbenzamide as Plasmodium falciparum dihydroorotate dehydrogenase (PfDHODH) inhibitors” (Med Chem Res, 2011)
pIC50: −log10 of the molar value.

These molecules were tested against T1, Dihydroorotate dehydrogenase (Plasmodium falciparum, UniProt Q54A96) (assay: Inhibition of Plasmodium falciparum HIs6-tagged DHODH expressed in Escherichia coli DH5alpha using L-dihydroorotate as substrate by DCIP-based spectrophotometric analysis).
T1 sequence (Q54A96 whole entry): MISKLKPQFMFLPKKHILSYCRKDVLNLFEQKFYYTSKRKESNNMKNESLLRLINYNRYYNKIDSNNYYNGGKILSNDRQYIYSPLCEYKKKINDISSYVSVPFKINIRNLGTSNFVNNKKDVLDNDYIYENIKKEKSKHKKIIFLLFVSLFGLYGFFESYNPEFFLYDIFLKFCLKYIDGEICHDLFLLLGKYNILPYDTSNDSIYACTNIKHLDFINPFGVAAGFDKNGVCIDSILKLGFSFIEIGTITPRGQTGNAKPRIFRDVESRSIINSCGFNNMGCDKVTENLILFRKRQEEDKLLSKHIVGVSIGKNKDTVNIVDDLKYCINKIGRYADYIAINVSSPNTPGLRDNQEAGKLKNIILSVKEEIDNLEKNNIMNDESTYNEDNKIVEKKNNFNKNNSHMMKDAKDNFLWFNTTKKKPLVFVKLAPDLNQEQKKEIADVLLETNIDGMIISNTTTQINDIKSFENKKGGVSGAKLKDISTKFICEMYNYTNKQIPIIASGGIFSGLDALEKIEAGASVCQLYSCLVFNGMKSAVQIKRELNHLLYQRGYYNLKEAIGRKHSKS

Compound | pIC50
COc1ccccc1NC(=O)Nc1cccc2ccccc12 | 6.60
Cc1c(C(=O)Nc2ccc(F)c(F)c2)cccc1[N+](=O)[O-] | 6.82
Cc1c(C(=O)Nc2cccc(Br)c2)cccc1[N+](=O)[O-] | 7.00
N#C/C(C(=O)Nc1ccc(C(F)(F)F)cc1)=C(/O)C1CC1 | 2.97
N#C/C(C(=O)Nc1ccc([N+](=O)[O-])cc1)=C(/O)C1CC1 | 3.27
Cc1c(C(=O)Nc2cccc3ccccc23)cccc1[N+](=O)[O-] | 7.00
O=C(Nc1ccc(Cl)cc1Cl)c1ccc2ccccc2c1 | 7.00
Cc1cccc(NC(=O)c2cccc([N+](=O)[O-])c2C)c1 | 6.52
O=C(Nc1ccccc1C(F)(F)F)Nc1cccc2ccccc12 | 6.70
N#C/C(C(=O)Nc1ccc(C#N)cc1)=C(/O)C1CC1 | 3.15
Cc1ccc(NC(=O)/C(C#N)=C(\O)C2CC2)cc1 | 3.06
Cc1c(C(=O)Nc2ccc(Cl)c(Cl)c2)cccc1[N+](=O)[O-] | 6.60
Cc1ccc(NC(=O)c2ccc3ccccc3c2)c(Cl)c1 | 6.82
O=C(Nc1ccccc1F)c1ccc2ccccc2c1 | 6.60
Cc1c(C(=O)Nc2cc(Cl)cc(Cl)c2)cccc1[N+](=O)[O-] | 6.82
O=C(Nc1ccc(Cl)cc1)Nc1cccc2cccnc12 | 6.26

The molecules below were run on Plasmodium falciparum (assay: Antiplasmodial activity against Plasmodium falciparum assessed as inhibition of [3H]hypoxanthine incorporation).
Format: functional, organism-based

Compound | pIC50
O=C(Nc1cccc(Cl)c1)c1ccccc1 | 5.06
O=C(Nc1cccc(Cl)c1Cl)c1ccccc1 | < 5.00
O=C(Nc1ccccc1Cl)c1ccccc1 | < 5.00
O=C(Nc1ccc(Br)cc1)c1ccccc1 | < 5.00
O=C(Nc1ccccc1)c1ccccc1 [N-PHENYLBENZAMIDE] | < 5.00
O=C(Nc1ccccc1[N+](=O)[O-])c1ccccc1 | < 5.00
O=C(Nc1ccc(Cl)cc1)c1ccccc1 | < 5.00
Cc1ccccc1NC(=O)c1ccccc1 [N-O-TOLYLBENZAMIDE] | < 5.00
O=C(Nc1cccc([N+](=O)[O-])c1)c1ccccc1 | < 5.00
COc1ccc(NC(=O)c2ccccc2)cc1Cl | < 5.00
Cc1ccc(NC(=O)c2ccccc2)cc1 | < 5.00
O=C(Nc1ccc(F)c(Cl)c1)c1ccccc1 | 5.24
Cc1cccc(NC(=O)c2ccccc2)c1 | < 5.00
O=C(Nc1ccc(Cl)cc1Cl)c1ccccc1 | < 5.00
C[C@H]1[C@H](OC(=O)CCC(=O)O)O[C@@H]2O[C@@]3(C)CC[C@H]4[C@H](C)CC[C@@H]1[C@@]24OO3 [ARTESUNATE] | 7.77
O=C(Nc1ccc([N+](=O)[O-])cc1)c1ccccc1 | < 5.00
